This assay has as its system microfilariae of Dirofilaria immitis. The experiment in a line: Dirofilaria immitis, Microfilaria (DiMF) In vitro Assay. The class given is cell-based. The settings on record: 72 h, read-out: DiMF Minimum Effective Dose (MED), approximately 72 hours incubation, microfilariae assessed for survival or paralysis.

This is an account of results in patent US11331369B2, “Endoparasitic depsipeptides” (Zoetis Services LLC, priority 2017, dated 2022).

With `CC(C)C[C@H]1C(=O)O[C@H](Cc2ccc(Cn3cc(-c4ccccc4)nn3)cc2)C(=O)N(C)[C@@H](CC(C)C)C(=O)O[C@H](C)C(=O)N(C)[C@@H](CC(C)C)C(=O)O[C@H](Cc2ccccc2)C(=O)N(C)[C@@H](CC(C)C)C(=O)O[C@H](C)C(=O)N1C` [Example 9-33, (3S,6R,9S,12R,15S,18R,21S,24R)-6-benzyl-3,9,15,21-tetraisobutyl-4,10,12,16,22,24-hexamethyl-18-(4-((4-phenyl-1H-1,2,3-triazol-1-yl)methyl)benzyl)-1,7,13,19-tetraoxa-4,10,16,22-tetraazacyclotetracosan-2,5,8,11,14,17,20,23-octaone], the minimal effective concentration was 0.01 to 0.1 µM.

As for `CC(C)C[C@H]1C(=O)O[C@H](Cc2ccc(CN3CCN(C(=O)OC(C)(C)C)CC3)cc2)C(=O)N(C)[C@@H](CC(C)C)C(=O)O[C@H](C)C(=O)N(C)[C@@H](CC(C)C)C(=O)O[C@H](Cc2ccccc2)C(=O)N(C)[C@@H](CC(C)C)C(=O)O[C@H](C)C(=O)N1C` [Example 10-9, tert-butyl 4-(4-(((2R,5S,8R,11S,14R,17S,20R,23S)-14-benzyl-5,11,17,23-tetraisobutyl-4,8,10,16,20,22-hexamethyl-3,6,9,12,15,18,21,24-octaoxo-1,7,13,19-tetraoxa-4,10,16,22-tetraazacyclotetracosan-2-yl)methyl)benzyl)piperazine-1-carboxylate], the minimal effective concentration lay in the range of 0.01 to 0.1 µM.

`CC(C)C[C@H]1C(=O)O[C@H](Cc2ccc(Cn3nc(-c4ccco4)cc3CO)cc2)C(=O)N(C)[C@@H](CC(C)C)C(=O)O[C@H](C)C(=O)N(C)[C@@H](CC(C)C)C(=O)O[C@H](Cc2ccc(Cn3nc(C#N)cc3C#N)cc2)C(=O)N(C)[C@@H](CC(C)C)C(=O)O[C@H](C)C(=O)N1C` [Example 1a-3, 1-(4-(((2R,5S,8R,11S,14R,17S,20R,23S)-14-(4-((3-(furan-2-yl)-5-(hydroxymethyl)-1H-pyrazol-1-yl)methyl)benzyl)-5,11,17,23-tetraisobutyl-4,8,10,16,20,22-hexamethyl-3,6,9,12,15,18,21,24-octaoxo-1,7,13,19-tetraoxa-4,10,16,22-tetraazacyclotetracosan-2-yl)methyl)benzyl)-1H-pyrazole-3,5-dicarbonitrile]: the minimal effective concentration lay in the range of 0.01 to 0.1 µM.

As to `CC(C)C[C@H]1C(=O)O[C@H](Cc2ccc(Cn3nc(C4CC4)cc3C3CC3)cc2)C(=O)N(C)[C@@H](CC(C)C)C(=O)O[C@H](C)C(=O)N(C)[C@@H](CC(C)C)C(=O)O[C@H](Cc2ccccc2)C(=O)N(C)[C@@H](CC(C)C)C(=O)O[C@H](C)C(=O)N1C` [Example 2-32, (3S,6R,9S,12R,15S,18R,21S,24R)-6-benzyl-18-(4-((3,5-dicyclopropyl-1H-pyrazol-1-yl)methyl)benzyl)-3,9,15,21-tetraisobutyl-4,10,12,16,22,24-hexamethyl-1,7,13,19-tetraoxa-4,10,16,22-tetraazacyclotetracosan-2,5,8,11,14,17,20,23-octaone], the minimal effective concentration was 0.01 to 0.1 µM.

On to `CC(C)C[C@H]1C(=O)O[C@H](Cc2ccc(Cn3ccc(N4CCOCC4)n3)cc2)C(=O)N(C)[C@@H](CC(C)C)C(=O)O[C@H](C)C(=O)N(C)[C@@H](CC(C)C)C(=O)O[C@H](Cc2ccc(Cn3ccc(N4CCOCC4)n3)cc2)C(=O)N(C)[C@@H](CC(C)C)C(=O)O[C@H](C)C(=O)N1C` [Example 1b-105, (3S,6R,9S,12R,15S,18R,21S,24R)-3,9,15,21-tetraisobutyl-4,6,10,16,18,22-hexamethyl-12,24-bis(4-((3-morpholino-1H-pyrazol-1-yl)methyl)benzyl)-1,7,13,19-tetraoxa-4,10,16,22-tetraazacyclotetracosan-2,5,8,11,14,17,20,23-octaone], for which the minimal effective concentration lay within 0.001 to 0.01 µM.

In the case of `Cc1cnn(Cc2ccc(C[C@H]3OC(=O)[C@H](CC(C)C)N(C)C(=O)[C@@H](C)OC(=O)[C@H](CC(C)C)N(C)C(=O)[C@@H](Cc4ccc(Cn5nc(C)c(S(=O)(=O)N6CCCC6)c5C)cc4)OC(=O)[C@H](CC(C)C)N(C)C(=O)[C@@H](C)OC(=O)[C@H](CC(C)C)N(C)C3=O)cc2)c1` [Example 1a-23, (3S,6R,9S,12R,15S,18R,21S,24R)-6-(4-((3,5-dimethyl-4-(pyrrolidin-1-ylsulfonyl)-1H-pyrazol-1-yl)methyl)benzyl)-3,9,15,21-tetraisobutyl-4,10,12,16,22,24-hexamethyl-18-(4-((4-methyl-1H-pyrazol-1-yl)methyl)benzyl)-1,7,13,19-tetraoxa-4,10,16,22-tetraazacyclotetracosan-2,5,8,11,14,17,20,23-octaone], the minimal effective concentration is 0.01 to 0.1 µM.

For `CC(C)C[C@H]1C(=O)O[C@H](Cc2ccc(Cn3ccnc3)cc2)C(=O)N(C)[C@@H](CC(C)C)C(=O)O[C@H](C)C(=O)N(C)[C@@H](CC(C)C)C(=O)O[C@H](Cc2ccc(Cn3ccnc3)cc2)C(=O)N(C)[C@@H](CC(C)C)C(=O)O[C@H](C)C(=O)N1C` [Example 6-2, (3S,6R,9S,12R,15S,18R,21S,24R)-6,18-bis[[4-(imidazol-1-ylmethyl)phenyl]methyl]-3,9,15,21-tetraisobutyl-4,10,12,16,22,24-hexamethyl-1,7,13,19-tetraoxa-4,10,16,22-tetrazacyclotetracosane-2,5,8,11,14,17,20,23-octaone], the minimal effective concentration lay in the range of 0.01 to 0.1 µM.

`CC(C)C[C@H]1C(=O)O[C@H](Cc2ccc(Cn3cc(/C(N)=N/O)cn3)cc2)C(=O)N(C)[C@@H](CC(C)C)C(=O)O[C@H](C)C(=O)N(C)[C@@H](CC(C)C)C(=O)O[C@H](Cc2ccc(Cn3cc(C(N)=NO)cn3)cc2)C(=O)N(C)[C@@H](CC(C)C)C(=O)O[C@H](C)C(=O)N1C` [Example 1b-22, N′-hydroxy-1-[[4-[[(2R,5S,8R,11S,14R,17S,20R,23S)-14-[[4-[[4-[(Z)—N′-hydroxycarbamimidoyl]pyrazol-1-yl]methyl]phenyl]methyl]-5,11,17,23-tetraisobutyl-4,8,10,16,20,22-hexamethyl-3,6,9,12,15,18,21,24-octaoxo-1,7,13,19-tetraoxa-4,10,16,22-tetrazacyclotetracos-2-yl]methyl]phenyl]methyl]pyrazole-4-carboxamidine]: the minimal effective concentration was 0.01 to 0.1 µM.

Consider `Cc1nn(Cc2ccc(C[C@H]3OC(=O)[C@H](CC(C)C)N(C)C(=O)[C@@H](C)OC(=O)[C@H](CC(C)C)N(C)C(=O)[C@@H](Cc4ccccc4)OC(=O)[C@H](CC(C)C)N(C)C(=O)[C@@H](C)OC(=O)[C@H](CC(C)C)N(C)C3=O)cc2)c(C)c1S(=O)(=O)N1CCCC1` [Example 2-40, (3S,6R,9S,12R,15S,18R,21S,24R)-6-benzyl-18-(4-((3,5-dimethyl-4-(pyrrolidin-1-ylsulfonyl)-1H-pyrazol-1-yl)methyl)benzyl)-3,9,15,21-tetraisobutyl-4,10,12,16,22,24-hexamethyl-1,7,13,19-tetraoxa-4,10,16,22-tetraazacyclotetracosan-2,5,8,11,14,17,20,23-octaone], for which the minimal effective concentration fell in the range of 0.01 to 0.1 µM.

On to `Cc1cnn(Cc2ccc(C[C@H]3OC(=O)[C@H](CC(C)C)N(C)C(=O)[C@@H](C)OC(=O)[C@H](CC(C)C)N(C)C(=O)[C@@H](Cc4ccc(Cn5cc(Br)cn5)cc4)OC(=O)[C@H](CC(C)C)N(C)C(=O)[C@@H](C)OC(=O)[C@H](CC(C)C)N(C)C3=O)cc2)c1` [Example 1a-24, (3S,6R,9S,12R,15S,18R,21S,24R)-6-(4-((4-bromo-1H-pyrazol-1-yl)methyl)benzyl)-3,9,15,21-tetraisobutyl-4,10,12,16,22,24-hexamethyl-18-(4-((4-methyl-1H-pyrazol-1-yl)methyl)benzyl)-1,7,13,19-tetraoxa-4,10,16,22-tetraazacyclotetracosan-2,5,8,11,14,17,20,23-octaone], for which the minimal effective concentration lay within 0.001 to 0.01 µM.

With `CC(C)C[C@H]1C(=O)O[C@H](Cc2ccc(Cn3cccc3/C(N)=N/O)cc2)C(=O)N(C)[C@@H](CC(C)C)C(=O)O[C@H](C)C(=O)N(C)[C@@H](CC(C)C)C(=O)O[C@H](Cc2ccc(Cn3cccc3C(N)=NO)cc2)C(=O)N(C)[C@@H](CC(C)C)C(=O)O[C@H](C)C(=O)N1C` [Example 9-30, N′-hydroxy-1-[[4-[[(2R,5S,8R,11S,14R,17S,20R,23S)-14-[[4-[[2-[(Z)—N′-hydroxycarbamimidoyl]pyrrol-1-yl]methyl]phenyl]methyl]-5,11,17,23-tetraisobutyl-4,8,10,16,20,22-hexamethyl-3,6,9,12,15,18,21,24-octaoxo-1,7,13,19-tetraoxa-4,10,16,22-tetrazacyclotetracos-2-yl]methyl]phenyl]methyl]pyrrole-2-carboxamidine], the minimal effective concentration fell in the range of 0.001 to 0.01 µM.

For the compound `CC(C)C[C@H]1C(=O)O[C@H](Cc2ccc(Cn3cc(OC4CCC4)cn3)cc2)C(=O)N(C)[C@@H](CC(C)C)C(=O)O[C@H](C)C(=O)N(C)[C@@H](CC(C)C)C(=O)O[C@H](Cc2ccc(Cn3cc(OC4CCC4)cn3)cc2)C(=O)N(C)[C@@H](CC(C)C)C(=O)O[C@H](C)C(=O)N1C` [Example 1b-141, (3S,6R,9S,12R,15S,18R,21S,24R)-6,18-bis(4-((4-cyclobutoxy-1H-pyrazol-1-yl)methyl)benzyl)-3,9,15,21-tetraisobutyl-4,10,12,16,22,24-hexamethyl-1,7,13,19-tetraoxa-4,10,16,22-tetraazacyclotetracosan-2,5,8,11,14,17,20,23-octaone], the minimal effective concentration is 0.01 to 0.1 µM.

As for `CC(C)C[C@H]1C(=O)O[C@H](Cc2ccc(Cn3ccnc3CF)cc2)C(=O)N(C)[C@@H](CC(C)C)C(=O)O[C@H](C)C(=O)N(C)[C@@H](CC(C)C)C(=O)O[C@H](Cc2ccccc2)C(=O)N(C)[C@@H](CC(C)C)C(=O)O[C@H](C)C(=O)N1C` [Example 8-14, (3S,6R,9S,12R,15S,18R,21S,24R)-6-benzyl-18-(4-((2-(fluoromethyl)-1H-imidazol-1-yl)methyl)benzyl)-3,9,15,21-tetraisobutyl-4,10,12,16,22,24-hexamethyl-1,7,13,19-tetraoxa-4,10,16,22-tetraazacyclotetracosan-2,5,8,11,14,17,20,23-octaone], the minimal effective concentration was in the range of 0.01 to 0.1 µM.
